Measured values from PubChem BioAssay (NCI).
Values joined by “and” are separate entries in the source; they are usually repeats but may differ in a detail not shown here. Identical values can stand only once.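 Step 1: Grow cells in 96-well plates. Step 2: Expose to compound for 48 hours at 5 concentrations. Step 3: Interpolate endpoints linearly; if unreached, use highest concentration. Definition used: TGI = concentration required for complete inhibition of growth.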

How the values were obtained:
Assay in all cases: NCI-60 cell line screen, 48 h
[1] = test system: A549 NSCLC
[2] = test system: OVCAR-4 ovarian
[3] = test system: NCI-H23 lung
[4] = test system: MDA-N
[5] = test system: SNB-19 CNS
[6] = test system: MDA-MB-435
[7] = test system: UO-31 renal
[8] = test system: MDA-MB-231 breast
[9] = test system: NCI-H460 lung
[10] = test system: UACC-62 melanoma
[11] = test system: DU-145 prostate
[12] = test system: SF-268 CNS
[13] = test system: U251 CNS
[14] = test system: HT29 colon
[15] = test system: TK-10 renal

SMILES	TGI [1] [µM]	TGI [2] [µM]	TGI [3] [µM]	TGI [4] [µM]	TGI [5] [µM]	TGI [6]	TGI [7]	TGI [8] [µM]	TGI [9] [µM]	TGI [10] [µM]	TGI [11] [µM]	TGI [12] [µM]	TGI [13] [µM]	TGI [14] [µM]	TGI [15] [µM]
COc1ccc(-c2c(C#N)c(N)n(C3OCC(OC(C)=O)C(OC(C)=O)C3OC(C)=O)c(=S)c2C#N)cc1 (centres undefined)	> 100	> 100	> 100	> 100	> 100	98.6 µM and > 100 µM	82.6 µM and > 100 µM	> 100	> 100	> 100	> 100	> 100	> 100	> 100	–
COc1ccc2c3c1O[C@]1(C)C34CCN(C)C(C2)C42C=C[C@@]1(OC)c1c(O)ccc(O)c12	> 100	–	> 100	–	> 100	–	> 100 µM	–	> 100	–	–	> 100	> 100	> 100	> 100
O=c1c2c(oc3ccccc13)-c1ccccc1OC2	> 100	–	> 100	> 100	–	> 100 µM	> 100 µM	47.4	–	> 100	> 100	> 100	> 100	> 100	> 100
COC(=O)C(=O)C(C(=O)C(=O)Nc1ccc(F)cc1)c1nc2ccc([N+](=O)[O-])cc2[nH]c1=O (centres undefined)	> 100	> 100	> 100	–	> 100	–	> 100 µM	–	> 100	–	–	> 100	> 100	> 100	> 100
O=C(CSc1nnc(-c2ccc(N=Cc3ccc(Cl)cc3)cc2)o1)Nc1ccccc1[N+](=O)[O-]	> 100	> 100	> 100	–	> 100	–	> 100 µM	–	> 100	> 100	–	> 100	> 100	> 100	> 100
C/C(=N\NS(=O)(=O)c1ccc(C)cc1)C(CN1CCCCC1)C(c1ccccc1)c1c(O)c2ccccc2oc1=O (centres undefined)	> 100	> 100	> 100	–	> 100	–	> 100 µM	–	> 100	> 100	–	> 100	> 100	> 100	> 100
CCOC(=O)P(=O)(O)c1ccc(N(C)Cc2ccccc2)cc1	> 100	> 100	> 100	> 100	> 100	> 100 µM	> 100 µM	> 100	–	> 100	> 100	> 100	> 100	> 100	> 100
O=C(O)c1nc2cc(C(F)(F)F)ccc2nc1Nc1ccc(F)cc1	> 100	–	38.2	91	> 100	> 100 µM	35.8 µM	70.8	–	31.1	–	> 100	59.5	> 100	> 100
O=C(Nc1ccc(Cl)cc1)NS(=O)(=O)c1coc2cc(F)ccc2c1=O	> 100	> 100	> 100	> 100	> 100	> 100 µM	> 100 µM	> 100	> 100	> 100	–	> 100	> 100	> 100	> 100
COC(=O)c1ccc(C)cc1CC1Cc2cc(C)ccc2C1=O (centres undefined)	> 100	> 100	> 100	> 100	> 100	> 100 µM	> 100 µM	> 100	> 100	> 100	–	> 100	> 100	> 100	> 100
C1=NCCN2CCN(CCN=Cc3ccc(cc3)OCc3cccc(n3)COc3ccc1cc3)CC2	> 50	> 50	> 50	–	> 50	> 50 µM	> 50 µM	> 50	> 50	> 50	> 50	> 50	> 50	> 50	> 50
Cc1cc2c(cc1-c1cc3c(cc1C)C(C(C)C)=C(O)C(=O)/C3=C\Nc1c3ccccc3nc3ccccc13)/C(=C/Nc1c3ccccc3nc3ccccc13)C(=O)C(O)=C2C(C)C	13.1	12.8	15	15.8	13.6	17.1 µM	15.4 µM	19	6.3	14.6	20.6	14.7	13.7	5.1	–
Cn1c(=O)c(Br)c(C=O)n(CCO[N+](=O)[O-])c1=O	33	–	19.4	17.3	68.4	21.6 µM	–	8.4	31.5	4.9	> 100	31.3	9.77	–	15.7
NC1=C(NC(=O)Cc2ccc(F)cc2)C(=O)c2ccccc2C1=O	> 100	> 100	27.9	–	59	–	> 100 µM	–	> 100	> 100	–	> 100	46.8	> 100	59
NC(=O)N/N=C(\CC1OC(=O)c2ccccc21)c1ccco1 (centres undefined)	> 100	> 100	> 100	–	> 100	–	> 100 µM	–	> 100	> 100	–	> 100	–	> 100	> 100
CNc1ncnc2c1ncn2C1C=CC(COS(N)(=O)=O)C1 (centres undefined)	> 100	> 100	> 100	> 100	> 100	> 100 µM	> 100 µM	–	> 100	> 100	> 100	> 100	> 100	> 100	–
O=C1/C(=C/c2cccc(F)c2)CCCc2ccccc21	38.2	31.8	42.6	–	29.4	29.7 µM	29.9 µM	32.5	31.1	28.6	30.6	28.1	29.7	25.9	29.1
